As a reminder, the GI50 is the concentration giving 50% growth inhibition.

Data on eleven molecules can be found in ChEMBL document CHEMBL1201862, “PubChem BioAssay data set” (2004).

Common to all, as to experiment: DTP human tumour cell line panel, 48 h
The test system of assay [1] is SF-295.
In assay [2] the test system is MDA-MB-231.
The test system of assay [3] is OVCAR-4.
For assay [4], the system named is COLO 205.
Assay [5] concerns M14.
The test system of assay [6] is K562.
Assay [7] deals with SR.
Assay [8] concerns UO-31.
The subject of assay [9] is IGROV-1.
Assay [10] has as its system HT-29.
The subject of assay [11] is NCI-H23.
Assay [12] concerns SF-539.
The test system of assay [13] is ACHN.
Assay [14] has as its system NCI-H460.
The test system of assay [15] is KM12.
The test system of assay [16] is SF-268.
The test system of assay [17] is SK-MEL-28.
Assay [18] concerns NCI/ADR-RES.
For assay [19], the system named is A498.
For assay [20], the system named is CAKI-1.

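Dose response: 5 concentrations. Exposure: 48 h. Format: 96-well plates. Endpoint: linear interpolation; highest concentration if not reached. At the GI50, growth is halved.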 Activity calls are given as the source filed them. Cut-off read from the data, not from the text of the source: active = GI50 up to about 1.1 µM and inactive = higher. Where a SMILES comes first, the peptide text is derived from it. The star is where a group is joined. Boc = CC(C)(C)OC(=O)*; nBu = CCCC*

With `CC1(C)OCC(C2OC3OC(C)(C)OC3C2c2ccccc2)O1` (stereo not given), the GI50 is > 100 µM (inactive) in assay [1]; 55 µM (inactive) in assay [2]; 41.4 µM (inactive) in assay [3]; 21.2 µM (inactive) in assay [4]; 33.7 µM (inactive) in assay [5]; 30.2 µM (inactive) in [6]. In addition, the GI50 in assay [7] is 28.8 µM (inactive); in assay [8] it was 44.8 µM (inactive); in assay [9] it was 41.1 µM (inactive); in assay [10] it was 39.6 µM (inactive); in [11], 22.2 µM (inactive); in [12], 37.5 µM (inactive). Also, the GI50 in assay [13] was 51.9 µM (inactive); in assay [14], 39.8 µM (inactive); in assay [15], 82.4 µM (inactive); in [16] it was 38.4 µM (inactive); in assay [17], 41.5 µM (inactive); in [18], 31.1 µM (inactive).
Turning to `COC(=O)/C=C/c1cnc2c(c1)oc(=O)n2CCc1ccccn1`, the GI50 in assay [1] was > 100 µM (inactive); in assay [19] it was 0.773 µM (active); in assay [2] it was > 100 µM (inactive); in assay [3] it was > 100 µM (inactive); in assay [4] it was > 100 µM (inactive); in [5], > 100 µM (inactive). The GI50 in assay [6] was 73.3 µM (inactive); in [7], 30.8 µM (inactive); in assay [8], > 100 µM (inactive); in [9], > 100 µM (inactive); in assay [10] it was > 100 µM (inactive); in assay [11], > 100 µM (inactive). For the same molecule, the GI50 in assay [12], in assay [13], in assay [14], in [15], in assay [16] and in [17] was > 100 µM (inactive) in each case. Besides, in assay [18], the GI50 is 40.1 µM (inactive).
Regarding `CO[C@@]12C[C@@H](C)C3=CCC(C)=C3CC1=C(C)C(=O)O2`, the GI50 in assay [1], in [19], in [2], in [3], in assay [4] and in [5] was > 100 µM (inactive) in each case. Moreover, the GI50 was 53.3 µM (inactive) in assay [6]; > 100 µM (inactive) in assay [20]; 44.2 µM (inactive) in assay [7]; > 100 µM (inactive) in [8]; > 100 µM (inactive) in assay [9]; > 100 µM (inactive) in [10]. Moreover, the GI50 in assay [11], in [13], in assay [14], in [15], in assay [16] and in assay [17] was > 100 µM (inactive) in each case. The GI50 in assay [18] was > 100 µM (inactive).
Consider `CC(=O)On1c(-c2ccccc2-c2nc3ccccc3n2OC(C)=O)nc2ccccc21`, for which the GI50 in assay [1] is 44.7 µM (inactive); in [2], 42.8 µM (inactive); in assay [4], 16.7 µM (inactive); in assay [5], 33.8 µM (inactive); in [6], 13.9 µM (inactive); in assay [20], > 100 µM (inactive). Besides, the GI50 in assay [7] was 19.1 µM (inactive); in assay [8], 74.6 µM (inactive); in assay [9], 22.1 µM (inactive); in assay [11] it was 7.48 µM (inactive); in [12], 42.7 µM (inactive); in assay [13] it was 61.8 µM (inactive). For the same molecule, the GI50 in assay [15] is 22.5 µM (inactive); in [16], 23 µM (inactive); in [17], 29.3 µM (inactive); in assay [18] it was 79.3 µM (inactive).
Take `CCCCCC(=O)OCC1(CO)C/C(=C\CC(C(C)C)C(C)C)C(=O)O1` (stereo not given): the GI50 in assay [1] is 25.9 µM (inactive); in [19], 86.1 µM (inactive); in [2], > 100 µM (inactive); in assay [3], > 100 µM (inactive); in assay [4], 17.9 µM (inactive); in assay [5], > 100 µM (inactive). The GI50 was 24.1 µM (inactive) in assay [6]; 83.6 µM (inactive) in [20]; 27.2 µM (inactive) in assay [7]; > 100 µM (inactive) in assay [8]; 65.8 µM (inactive) in assay [9]; 30.7 µM (inactive) in assay [10]. For the same molecule, the GI50 in [11] is > 100 µM (inactive); in assay [13], > 100 µM (inactive); in assay [14], 42.3 µM (inactive); in assay [15] it was 39.6 µM (inactive); in assay [16], > 100 µM (inactive); in [17] it was 59.3 µM (inactive). For the same molecule, the GI50 in assay [18] is 87.5 µM (inactive).
In the case of `CO[C@@]12[C@H](COC(N)=O)C3=C(C(=O)C(C)=C(N)C3=O)N1C[C@@H]1N[C@@H]12` [MITOMYCIN], the GI50 is 0.714 µM (active) in assay [19]; 5.71 µM (inactive) in assay [2]; 3.56 µM (inactive) in [3]; 1.02 µM (active) in [4]; 2.03 µM (inactive) in assay [6]; 0.122 µM (active) in [7]. The GI50 in assay [8] was 1.87 µM (inactive); in assay [9] it was 2.9 µM (inactive); in [10], 0.759 µM (active); in assay [15], 2.22 µM (inactive); in assay [17] it was 1.75 µM (inactive); in assay [18] it was 4.74 µM (inactive).
On to `CC(=C(C(N)=O)C(N)=O)C1C=C(c2cccs2)CC(c2ccc(Cl)cc2)=C1O` (stereo not given), for which the GI50 in assay [1] is 82.8 µM (inactive); in assay [19] it was 21.5 µM (inactive); in assay [2], > 100 µM (inactive); in assay [3], 5.51 µM (inactive); in assay [4], 42 µM (inactive); in [5], 42.5 µM (inactive). Also, the GI50 is 25 µM (inactive) in assay [6]; 44.3 µM (inactive) in assay [20]; 31 µM (inactive) in assay [7]; 16.4 µM (inactive) in assay [8]; 35 µM (inactive) in [9]; 39.8 µM (inactive) in assay [10]. Also, the GI50 was > 100 µM (inactive) in assay [11]; 52.5 µM (inactive) in assay [13]; 69 µM (inactive) in assay [14]; 34.7 µM (inactive) in assay [15]; > 100 µM (inactive) in assay [16]; > 100 µM (inactive) in [17]. For the same molecule, in assay [18], the GI50 is 44.9 µM (inactive).
Regarding `Cc1ccc(SCC(CF)OC(C)n2cnc3c(O)nc(N)nc32)cc1` (stereo not given), the GI50 in assay [1], in assay [2], in [3], in assay [4], in [5] and in assay [20] was > 100 µM (inactive) throughout. Besides, the GI50 in [7] was 98.4 µM (inactive); in [8] it was > 100 µM (inactive); in [9], > 100 µM (inactive); in [10], > 100 µM (inactive); in [11] it was 75.5 µM (inactive); in assay [12], > 100 µM (inactive). Also, the GI50 in [13] is 55.6 µM (inactive); in [14], > 100 µM (inactive); in assay [15], > 100 µM (inactive); in assay [16], > 100 µM (inactive); in assay [17], > 100 µM (inactive); in assay [18] it was > 100 µM (inactive).
For `C1=CN2C[n+]3ccc4ccccc4c3N=C2c2ccccc21`, the GI50 in assay [1] is 2.69 µM (inactive); in [2], 6.08 µM (inactive); in [4], 1.23 µM (inactive); in assay [5], 2.72 µM (inactive); in assay [6], 1.24 µM (inactive); in assay [20], 15 µM (inactive). The concentration for 50% growth inhibition (GI50) in [7] is 1.11 µM (active); in [8] it was 21 µM (inactive); in assay [9] it was 3.74 µM (inactive); in assay [10] it was 2.45 µM (inactive); in assay [11] it was 2.76 µM (inactive); in [12], 3.25 µM (inactive). The GI50 was 23.3 µM (inactive) in assay [13]; 3.54 µM (inactive) in assay [14]; 1.85 µM (inactive) in assay [15]; 2.54 µM (inactive) in [16]; 48.6 µM (inactive) in assay [18].
`CCCCOc1ccc(CC(NC(=O)OC(C)(C)C)C(=O)NC(C)C(=O)NC(Cc2ccccc2)C(=O)NCC(N)=O)cc1` (stereo not given) (Boc-Y(nBu)AFG-NH2; configuration not given here): the GI50 in assay [1] was > 100 µM (inactive); in [19], > 100 µM (inactive); in assay [2], 82.4 µM (inactive); in [3] it was > 100 µM (inactive); in assay [4] it was > 100 µM (inactive); in assay [5], > 100 µM (inactive). Besides, the GI50 in assay [6] is > 100 µM (inactive); in assay [20], > 100 µM (inactive); in assay [8], > 100 µM (inactive); in assay [9], 31.3 µM (inactive); in assay [10], > 100 µM (inactive); in assay [11] it was > 100 µM (inactive). For the same molecule, the GI50 in [12] is > 100 µM (inactive); in assay [13] it was > 100 µM (inactive); in assay [14], > 100 µM (inactive); in assay [15] it was > 100 µM (inactive); in assay [16] it was > 100 µM (inactive); in assay [17] it was 91 µM (inactive). For the same molecule, the GI50 in [18] is > 100 µM (inactive).
In the case of `NC(Cc1cccc([N+](=O)[O-])c1)C(=O)O` (stereo not given), the GI50 in assay [1], in assay [19], in assay [2], in assay [3], in assay [4] and in [5] was > 100 µM (inactive) in each case. For the same molecule, the GI50 in [6], in assay [20], in [8], in assay [9], in [10] and in assay [11] was > 100 µM (inactive) each time. Also, the GI50 in [12], in assay [13], in assay [14], in [15], in [16] and in [17] was > 100 µM (inactive) throughout. In assay [18], the GI50 is > 100 µM (inactive).
